Here are results for four molecules from publication PMC9359617 (Nature structural & molecular biology, 2022).

Data set [1] concerns the target T1, CaChs2 (Candida albicans, UniProt P30572).
T1 sequence (P30572 1-1009): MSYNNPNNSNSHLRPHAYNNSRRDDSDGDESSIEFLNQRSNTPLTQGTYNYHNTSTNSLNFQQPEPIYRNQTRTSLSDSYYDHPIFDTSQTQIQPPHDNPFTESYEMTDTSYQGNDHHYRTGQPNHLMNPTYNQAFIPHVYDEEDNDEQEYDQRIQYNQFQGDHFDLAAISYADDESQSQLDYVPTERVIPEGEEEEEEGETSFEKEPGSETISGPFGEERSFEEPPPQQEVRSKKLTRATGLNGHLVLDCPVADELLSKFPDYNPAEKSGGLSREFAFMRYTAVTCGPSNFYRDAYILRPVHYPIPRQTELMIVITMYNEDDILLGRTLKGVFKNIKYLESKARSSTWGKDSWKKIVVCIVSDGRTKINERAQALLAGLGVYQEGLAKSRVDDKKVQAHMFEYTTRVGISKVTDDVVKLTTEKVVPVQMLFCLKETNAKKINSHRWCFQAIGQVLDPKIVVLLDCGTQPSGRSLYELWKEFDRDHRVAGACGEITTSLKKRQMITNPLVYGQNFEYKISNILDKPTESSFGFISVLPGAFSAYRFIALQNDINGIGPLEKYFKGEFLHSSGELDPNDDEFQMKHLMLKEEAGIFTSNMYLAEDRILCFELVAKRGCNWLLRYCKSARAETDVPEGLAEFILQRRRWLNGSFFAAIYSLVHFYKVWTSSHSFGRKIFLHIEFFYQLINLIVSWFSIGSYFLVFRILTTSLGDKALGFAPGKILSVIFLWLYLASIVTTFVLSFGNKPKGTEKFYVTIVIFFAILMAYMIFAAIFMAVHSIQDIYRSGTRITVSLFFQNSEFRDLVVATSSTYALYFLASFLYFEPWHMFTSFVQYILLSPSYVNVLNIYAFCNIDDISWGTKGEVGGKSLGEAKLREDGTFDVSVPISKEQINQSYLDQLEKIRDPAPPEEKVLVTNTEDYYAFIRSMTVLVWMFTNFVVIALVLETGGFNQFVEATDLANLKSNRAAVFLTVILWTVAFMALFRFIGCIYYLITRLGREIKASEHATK
Put plainly: CaChs2 activity assay. Format: biochemical. As to conditions: purified recombinant CaChs2; formation of water-insoluble chitin polymers from UDP-GlcNAc.

The next data set concerns CaChs2 W647A. Nature of the data set: Isothermal titration calorimetry, CaChs2 W647A. It counts as binding, Candida albicans. As to conditions: ITC.
For a further data set, the target named is CaChs2 WT (Candida albicans, UniProt P30572). Put plainly: Isothermal titration calorimetry, CaChs2 WT. It counts as binding. In general terms: Isothermal titration calorimetry measures the heat released or taken up as one component is titrated into another.
A further data set has as its system C. albicans. As to conditions: against C. albicans; lower end printed as < 0.5; cited from earlier work.
The target of data set [2] is T1, CaChs2. Nature of the data set: CaChs2 inhibition assay. Format: biochemical.
In a further data set the target is CaChs2 Q643A (Candida albicans, UniProt P30572, Q643A). Nature of the data set: Isothermal titration calorimetry, CaChs2 Q643A. As to conditions: Q643A mutant, ITC. Format: binding.
For the next data set, the system named is CaChs2 T631A. Put plainly: CaChs2 inhibition assay, T631A mutant. Format: biochemical, Candida albicans. The note with it: alanine mutation of T631.
The data set “cryo-EM structure” concerns the molecule itself. Nature of the data set: cryo-EM structure.

Read-outs that look alike come from different tables or passages of the source.

A word on the Km: it is the concentration of substrate that gives half-maximal velocity. Regarding `CC(=O)N[C@H]1[C@@H](OP(=O)(O)OP(=O)(O)OC[C@H]2O[C@@H](n3ccc(=O)[nH]c3=O)[C@H](O)[C@@H]2O)O[C@H](CO)[C@@H](O)[C@@H]1O` [UDP-GlcNAc], on CaChs2 [1], the Km stood at 6 ± 0.7 mM and the kcat came to 8.6 ± 2.7 min−[1].
Usually Kd stands for the free concentration of one partner at which half of the binding sites on the other are occupied at equilibrium, for simple one-to-one binding. Usually MIC80 stands for an inhibitory concentration at the 80% level, which refers to growth in some studies and to a panel of isolates in others. Usually Ki stands for the dissociation constant of the complex between target and ligand, obtained from inhibition or displacement. In the case of `C[C@@H]([C@H](N)C(=O)N[C@H](C(=O)O)[C@H]1O[C@@H](n2ccc(=O)[nH]c2=O)[C@H](O)[C@@H]1O)[C@H](O)c1ccc(O)cn1` [nikkomycin Z], the “reduction of affinity to nikkomycin Z, mutant vs WT” value with CaChs2 W647A is listed as “about 18 fold”. In addition, the Kd on CaChs2 WT is ~190 nM. The MIC80 with C. albicans is 0.5 to 32 µg/mL. Further, the Ki on CaChs2 [2] came out at 1500 ± 500 nM. Besides, on CaChs2 [2] (affinity of nikkomycin Z to CaChs2 compared with UDP-GlcNAc), the “difference between Ki of the inhibitor and Km of UDP-GlcNAc” value is given as “three orders of magnitude”. Moreover, at CaChs2 Q643A, the “effect of the mutation on affinity to nikkomycin Z” value is reported as “only moderately affects the affinity”.
On to `NC(=O)OC[C@H](O)[C@@H](O)[C@H](N)C(=O)N[C@H](C(=O)O)[C@H]1O[C@@H](n2cc(C(=O)O)c(=O)[nH]c2=O)[C@H](O)[C@@H]1O` [polyoxin D], for which, in the data set with CaChs2 T631A, the “decrease of affinity for polyoxin D, mutant vs WT” value was “about threefold”. The same molecule showed a Ki on CaChs2 [2] (purified CaChs2) of 3200 ± 1400 nM.

B1: Chs2 from Candida albicans (CaChs2), wild type (enzyme, UniProt P30572 1-1009, looked up)
chain: MSYNNPNNSNSHLRPHAYNNSRRDDSDGDESSIEFLNQRSNTPLTQGTYNYHNTSTNSLNFQQPEPIYRNQTRTSLSDSYYDHPIFDTSQTQIQPPHDNPFTESYEMTDTSYQGNDHHYRTGQPNHLMNPTYNQAFIPHVYDEEDNDEQEYDQRIQYNQFQGDHFDLAAISYADDESQSQLDYVPTERVIPEGEEEEEEGETSFEKEPGSETISGPFGEERSFEEPPPQQEVRSKKLTRATGLNGHLVLDCPVADELLSKFPDYNPAEKSGGLSREFAFMRYTAVTCGPSNFYRDAYILRPVHYPIPRQTELMIVITMYNEDDILLGRTLKGVFKNIKYLESKARSSTWGKDSWKKIVVCIVSDGRTKINERAQALLAGLGVYQEGLAKSRVDDKKVQAHMFEYTTRVGISKVTDDVVKLTTEKVVPVQMLFCLKETNAKKINSHRWCFQAIGQVLDPKIVVLLDCGTQPSGRSLYELWKEFDRDHRVAGACGEITTSLKKRQMITNPLVYGQNFEYKISNILDKPTESSFGFISVLPGAFSAYRFIALQNDINGIGPLEKYFKGEFLHSSGELDPNDDEFQMKHLMLKEEAGIFTSNMYLAEDRILCFELVAKRGCNWLLRYCKSARAETDVPEGLAEFILQRRRWLNGSFFAAIYSLVHFYKVWTSSHSFGRKIFLHIEFFYQLINLIVSWFSIGSYFLVFRILTTSLGDKALGFAPGKILSVIFLWLYLASIVTTFVLSFGNKPKGTEKFYVTIVIFFAILMAYMIFAAIFMAVHSIQDIYRSGTRITVSLFFQNSEFRDLVVATSSTYALYFLASFLYFEPWHMFTSFVQYILLSPSYVNVLNIYAFCNIDDISWGTKGEVGGKSLGEAKLREDGTFDVSVPISKEQINQSYLDQLEKIRDPAPPEEKVLVTNTEDYYAFIRSMTVLVWMFTNFVVIALVLETGGFNQFVEATDLANLKSNRAAVFLTVILWTVAFMALFRFIGCIYYLITRLGREIKASEHATK
In general, stoichiometry N refers to the number of molecules, sites or subunits per partner or assembly. Consider B1, for which, in “cryo-EM structure”, the “stoichiometry N” value stood at 2.
